{
  "source": "BindingDB's records for doi:10.1021/jm300377g",
  "about": "(University of Lille, 2012)",
  "data": [
    {"test": "Inhibition of EthR in Mycobacterium tuberculosis H37Rv-GFP infected in mouse Raw 264.7 cells assessed as compound concentration allowing 0.1 uM ethionamide to inhibit 50% microbial growth by automated fluorescent confocal microscopy", "units": {"EC50": "µM"}, "values": [
      {"compound": "COc1cccc(SCC(=O)Nc2ccc(-c3nc4ccccc4s3)cc2)c1", "EC50": "> 10"},
      {"compound": "COc1cccc(OCC(=O)Nc2ccc(Cl)cc2)c1", "EC50": 1.6},
      {"compound": "Cc1ccc2cc(NC(=O)COc3ccccc3F)ccc2n1", "EC50": 2.2},
      {"compound": "N#Cc1cccc(OCC(=O)Nc2ccc(-c3nc4ccccc4s3)cc2)c1", "EC50": 0.34},
      {"compound": "COc1cccc(OCC(=O)Nc2ccc(-c3nc4ccccc4s3)cc2)c1", "EC50": 0.21},
      {"compound": "Cc1ccc(-n2nc3ccc(NC(=O)COc4ccccc4C)cc3n2)cc1", "EC50": "> 10"}
    ]}
  ]
}
